In patent US10526345B2, “Compounds as GPR119 agonists” (Mankind Pharma Ltd., priority 2016, dated 2020):

Key:
Male SD rats = test: Oral glucose tolerance test in Sprague-Dawley rats; assay type: in vivo; conditions: 3 mpk and 10 mpk, glucose 2 g/kg
Method: (§1) Male SD rats (8-10 weeks) were grouped based on basal glucose levels and animals were fasted for 16 hours. Glucose level of each animal was estimated in blood collected from tail vein before animals were dosed orally with 0.5% Tween 80 and 0.5% NaCMC (vehicle control) and compounds at 3 and 10 mpk (n=5). After 30 minutes of compound dosing, blood glucose was again estimated and 2 g/kg/10 ml (20%) of Glucose solution was administered orally to all the animals. Blood glucose was estimated at 15, 30, 60, 90 and 120 minutes time points after glucose administration. Accu-Check active blood glucose meter was utilised for estimation of blood from tail vein.
Glucose reduction observed in animals treated with GPR119 agonists is represented in terms of % AUC reduction. A greater glucose reduction in oral glucose tolerance test indicates the compound's efficacy in this rodent species.

Male C57BL/6 mice = test: Oral glucose tolerance test in C57BL/6 mice; assay type: in vivo; conditions: 3 mpk and 10 mpk, glucose 2 g/kg
Method: as §1, with “C57BL/6 mice” for “SD rats”
Glucose reduction observed in animals treated with compounds of present invention is represented in terms of % AUC reduction. A greater glucose reduction in oral glucose tolerance test indicates the compound's efficacy in this rodent species.

hGPR119 = target: T1, hGPR119 (Homo sapiens, UniProt Q8TDV5); test: In vitro cyclic AMP assay (Cisbio dynamic 2 HTRF kit) in CHO-hGPR119 cells; assay type: cell-based; conditions: cAMP; for activation at 1 µM: 1 h, compound at 1 μM, 60 min, read-out: Induction (% induction at 1 μM)
T1 construct: expressed in transfected cells; host or cells: CHO
T1 sequence (Q8TDV5 1-335): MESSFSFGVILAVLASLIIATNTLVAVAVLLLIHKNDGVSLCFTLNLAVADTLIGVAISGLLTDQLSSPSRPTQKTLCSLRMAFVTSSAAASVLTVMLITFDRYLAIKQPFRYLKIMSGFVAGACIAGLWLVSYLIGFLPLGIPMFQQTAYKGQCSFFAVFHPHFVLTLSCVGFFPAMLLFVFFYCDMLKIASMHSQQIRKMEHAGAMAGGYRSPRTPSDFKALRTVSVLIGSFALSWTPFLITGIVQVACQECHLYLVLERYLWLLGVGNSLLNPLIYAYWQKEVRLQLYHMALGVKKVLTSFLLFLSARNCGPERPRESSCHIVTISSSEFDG

Row | Structure (SMILES) | glucose reduction (% AUC reduction) in oral glucose tolerance test (Male SD rats) | glucose reduction (% AUC reduction) in oral glucose tolerance test (Male C57BL/6 mice) | activation at 1 µM (hGPR119) | EC50 (hGPR119)
1 | CCCc1cnc(N2CCC([C@H](C)Oc3nc4ccc(-c5ccc(S(C)(=O)=O)nc5)nc4s3)CC2)nc1 [Compound 1099, (S)-5-(6-(methylsulfonyl)pyridin-3-yl)-2-(1-(1-(5-propylpyrimidin-2-yl)piperidin-4-yl)ethoxy)thiazolo[5,4-b]pyridine] | significant dose dependent glucose reduction | significant dose dependent glucose reduction | 81% | < 25 nM
2 | CC(C)c1noc(N2CCC([C@H](C)Oc3nc4ccc(-c5cnc(Cl)nc5)nc4s3)CC2)n1 [Compound 1119, (S)-5-(4-(1-((5-(2-chloropyrimidin-5-yl)thiazolo[5,4-b]pyridin-2-yl)oxy)ethyl)piperidin-1-yl)-3-isopropyl-1,2,4-oxadiazole] | significant dose dependent glucose reduction | significant dose dependent glucose reduction | 75% | < 25 nM
